Results published in the NIST ThermoML archive (doi:10.1021/je050367p).
“And” between values parts separate entries of the source, which are not always exact repeats. Equal entries are not always repeated.

How the values were obtained:
[1] = refractive index (Na D-line) (dimensionless); xn = mol fraction of the nth substance listed; conditions: 100.8 kPa, Liquid, Standard Abbe refractometry
[2] = xn = mol fraction of the nth substance listed; conditions: Liquid; for viscosity: Capillary tube (Ostwald / Ubbelohde) method
[3] = refractive index (Na D-line) (dimensionless); conditions: 101.33 kPa, Liquid, Standard Abbe refractometry
[4] = Liquid; for viscosity: Capillary tube (Ostwald / Ubbelohde) method

CCO [ethanol] + CC(C)OC(C)C
[1], x2 = 0
Conditions	refractive index
288.15 K	1.36342
298.15 K	1.35924
308.15 K	1.35502

[2], 100.5 kPa, x2 = 0
Conditions	mass density [kg/m3]	viscosity [mPa·s]
288.15 K	793.74	1.309
298.15 K	785.17	1.084
308.15 K	776.49	0.905

CC(C)OC(C)C [diisopropyl ether]
[3]
Conditions	refractive index
288.15 K	1.37093
298.15 K	1.36524
308.15 K	1.35944

[4]
Conditions	mass density, 288.15 K [kg/m3]	mass density, 298.15 K [kg/m3]	mass density, 308.15 K [kg/m3]	viscosity, 288.15 K [mPa·s]	viscosity, 298.15 K [mPa·s]	viscosity, 308.15 K [mPa·s]
100.5 kPa	729.09	718.7	708.12	0.348	0.313	0.283
100.8 kPa	729.09	718.7	708.12	0.348	0.313	0.283

CC(C)CC(C)(C)C [2,2,4-trimethylpentane]
[3]
Conditions	refractive index
288.15 K	1.39404
298.15 K	1.389
308.15 K	1.38395

[4], 100.8 kPa
Conditions	mass density	viscosity [mPa·s]
288.15 K	695.95 kg/m3	0.537
298.15 K	687.74 kg/m3	0.48
308.15 K	679.43 kg/m3 and 679.41 kg/m3	0.432

CC(C)CC(C)(C)C [2,2,4-trimethylpentane] + CC(C)OC(C)C
[1], x2 = 0
Conditions	refractive index
288.15 K	1.39404
298.15 K	1.389
308.15 K	1.38395

[2], 100.8 kPa, x2 = 0
Conditions	mass density [kg/m3]	viscosity [mPa·s]
288.15 K	695.95	0.537
298.15 K	687.74	0.48
308.15 K	679.43	0.432

CCO [ethanol]
[3]
Conditions	refractive index
288.15 K	1.36342
298.15 K	1.35924
308.15 K	1.35502

[4]
Conditions	mass density, 288.15 K [kg/m3]	mass density, 298.15 K [kg/m3]	mass density, 308.15 K [kg/m3]	viscosity, 288.15 K [mPa·s]	viscosity, 298.15 K [mPa·s]	viscosity, 308.15 K [mPa·s]
100.5 kPa	793.74	785.17	776.49	1.309	1.084	0.905
100.8 kPa	793.74	785.17	776.49	1.309	1.084	0.905

CCO [ethanol] + CC(C)CC(C)(C)C
[1], x1 = 1
Conditions	refractive index
288.15 K	1.36342
298.15 K	1.35924
308.15 K	1.35502

[2], 100.8 kPa, x1 = 1
Conditions	mass density [kg/m3]	viscosity [mPa·s]
288.15 K	793.74	1.309
298.15 K	785.17	1.084
308.15 K	776.49	0.905
